Laboratory results: patent US20100120848A1, “STABLE PHARMACEUTICAL FORMULATIONS OF MONTELUKAST SODIUM” (Teva Pharmaceutical Industries Ltd., priority 2006, published 2010)

Experiment: Excipient compatibility: montelukast sodium/excipient mixtures stored at 55° C. for 48 hours, sulfoxide of formula (I) by HPLC
Assay type: physicochemical
Details: for % Sulfoxide of Formula (I), 0 hours: by weight relative to montelukast sodium, before storage
Method: Comparative testing with montelukast sodium was performed to determine the conditions which cause the degradation of montelukast sodium into the corresponding sulfoxide. Compositions of montelukast sodium and each of the excipients of the prior art tablets were prepared and subjected to stressed storage conditions. The amount of the corresponding sulfoxide present in each of the compositions was measured by high performance liquid chromatography (“HPLC”) both before and after storage.
Sample mixtures of montelukast sodium and each of the individual excipients were prepared. Each sample was stored at 55° C. for 48 hours. The percentage by weight of sulfoxide of formula (I) relative to montelukast sodium in each sample was measured at 0 hours and at 48 hours by HPLC. HPLC was performed on a Beta-Basic C18 analytical column (150×4.6 mm I.D.), packed with 5 μm diameter particles (Thermo Election Corporation). The mobile phase was a mixture of acetonitrile and 20 mM KH2PO4 (60:40) and its flow-rate was 1.5 mL/min. The UV detector was set at 225 nm or 281 nm and the column temperature was 40° C.

% Sulfoxide of Formula (I), 0 hours [%] | increase of the amount of the corresponding sulfoxide in the composition over the storage period (in the presence of microcrystalline cellulose, stressed storage conditions) | SMILES
0.63 |  | CC(C)(O)c1ccccc1CC[C@@H](SCC1(CC(=O)[O-])CC1)c1cccc(/C=C/c2ccc3ccc(Cl)cc3n2)c1.[Na+] [Sample 1, Montelukast sodium]
0.26 |  | CC(C)(O)c1ccccc1CC[C@@H](SCC1(CC(=O)[O-])CC1)c1cccc(/C=C/c2ccc3ccc(Cl)cc3n2)c1.[Na+] [Sample 7, Montelukast sodium]
 | over 250% | CC(C)(O)c1ccccc1CC[C@@H](SCC1(CC(=O)[O-])CC1)c1cccc(/C=C/c2ccc3ccc(Cl)cc3n2)c1.[Na+] [montelukast sodium, [R-(E)]-1-[[[1-[3-[2-(7-chloro-2-quinolinyl)ethenyl]phenyl]-3-[2-(1-hydroxy-1-methylethyl)phenyl]propyl]thio]methyl]cyclopropaneacetic acid, monosodium salt]
